# Laboratory results as given in PMC9951879, “Synthesis of New Shogaol Analogues as NRF2 Activators and Evaluation of Their Anti-Inflammatory Activity, Modes of Action and Metabolic Stability” (Antioxidants, 2023).
# Read-outs that look alike come from different tables or passages of the source.
# Assays:
# [1] = tested on: NAD(P)H quinone oxidoreductase 1 (NQO1); experiment: Prochaska microtiter plate bioassay, NQO1 induction in Hepa-1c1c7 cells; format: cell-based, mouse
# Method: The effect of shogaol thiophene compounds (STCs) on NRF2 activation is determined by measuring the NAD(P)H quinone oxidoreductase 1 (NQO1) inducer activity, as reported in our previous studies. The mouse hepatoma cells (Hepa-1c1c7, 1 × 10^4 per well) were incubated with STCs (10, 1, 0.1, 0.01, and 0.001 µM) for 48 h. The cells were lysed using digitonin (0.8 mg/mL and 2 mM EDTA; Acros, UK), and the protein concentration was determined using Bradford’s assay kit (Thermo Fisher Scientific, USA). The cell lysate was incubated with a reaction mixture of 0.5 M Tris-Cl buffer (Calbiochem, USA), 7.5 mM FAD (Acros, UK), 150 mM glucose-6-phosphate (Calbiochem, San Diego, CA, USA), 2 U/mL glucose-6-phosphate dehydrogenase (Calbiochem, USA), 50 mM NADP+ (Sigma Aldrich, USA), 25 mM menadione (Sigma Aldrich, USA), and 0.7 mM MTT (Sigma Aldrich, USA) at 37 °C for 5 min. The absorbance was recorded at 610 nm using a microplate reader (Spectramax M3, Molecular Devices, San Jose, CA, USA), and the values were normalised to the total protein content.
# [2] = tested on: nitric oxide (NO); experiment: Nitric oxide (Griess) in LPSEc-stimulated BV-2 cells; format: cell-based, mouse; conditions: LPSEc 200 ng/mL; for NO production: 1 μM; for inhibition at 1 µM: Mus musculus, BV-2, 1 μM, read-out: percentage of NO inhibition
# Method: (§1) The anti-inflammatory activity of the STCs was determined in E. coli lipopolysaccharide (LPSEc; Sigma Aldrich, USA)-induced inflammation in NRF2-proficient and NRF2 siRNA-transfected mouse microglial (BV-2) cells. The NRF2 was silenced in BV-2 cells using NRF2 siRNA (Santa Cruz Biotechnology, Dallas, TX, USA) in Opti-MEM transfection medium (Thermo Fisher Scientific, USA) using Lipofectamine^TM LTX reagent with PLUS^TM reagent (Thermo Fisher Scientific, USA) following the manufacturer’s protocol and reported method. The cells (5 × 10^5 cells/well) were allowed to form a monolayer by incubating them for 24 h and then adding LPSEc (200 ng/mL) for 4 h. The STCs (1 µM) were then added and incubated for another 20 h. The nitric oxide (NO) level in cell supernatant was determined using the Griess reagent kit (Thermo Fisher Scientific, USA). The levels of proinflammatory cytokines (IL-1β, IL-6, IFN-γ, and TNF-α) in cell supernatant solutions were determined using commercially available ELISA kits (Abcam, Cambridge, UK). The cell pellets were lysed using Cell Lysis buffer (Thermo Fisher Scientific, Waltham, MA, USA) following the manufacturer’s instructions. The supernatant solution in the wells was replaced with PBS, and cells were detached by scraping, washed with PBS, and centrifuged to collect the cell pellet. The cell pellet was lysed on ice in a cell lysis buffer for half an hour, vortexing at regular intervals. The cell lysate was centrifuged at 15,000 rpm for 15 min at 4 °C. The clear lysate was stored at −80 °C until further use. The protein concentration was determined using Bradford’s assay kit (Thermo Fisher Scientific, USA) following the manufacturer’s instructions. The expression of COX-2, NF-κB p65, NRF2, and HO-1 in cell lysates was determined using commercially available ELISA kits (Abcam, St, Louis, Missouri, USA) following the manufacturer’s protocol. In addition, the thiol content was determined using a thiol quantification assay kit (Abcam, USA).
# [3] = tested on: IL-6; experiment: IL-6 ELISA in LPSEc-stimulated BV-2 cells; format: cell-based, mouse; conditions: LPSEc 200 ng/mL; for IL-6 level: 1 μM; for inhibition at 1 µM: Mus musculus, BV-2, 1 μM, read-out: percentage of IL-6 inhibition
# Method: as §1
# [4] = tested on: IFN-γ; experiment: IFN-γ ELISA in LPSEc-stimulated BV-2 cells; format: cell-based, mouse; conditions: LPSEc 200 ng/mL; for IFN-γ level: 1 μM; for inhibition at 1 µM: Mus musculus, BV-2, 1 μM, read-out: percentage of IFN-γ inhibition
# Method: as §1
# [5] = tested on: TNF-α; experiment: TNF-α ELISA in LPSEc-stimulated BV-2 cells; format: cell-based, mouse; conditions: LPSEc 200 ng/mL; for inhibition at 1 µM: Mus musculus, BV-2, 1 μM, read-out: percentage of TNF-α inhibition
# Method: as §1
# [6] = tested on: NF-κB p65; experiment: NF-κB p65 ELISA in LPSEc-stimulated BV-2 cell lysates; format: cell-based, mouse; conditions: LPSEc 200 ng/mL; for NF-κB p65 level: 1 μM; for inhibition at 1 µM: Mus musculus, BV-2, 1 μM, read-out: percent NF-κB inhibition
# Method: as §1
# [7] = target: T1, KEAP1-NRF2 interaction (Homo sapiens, UniProt Q14145); experiment: KEAP1-Nrf2 inhibitor screening, fluorescence polarisation assay; format: binding; conditions: KEAP1 Kelch domain, read-out: IC50, NRF2-KEAP1 inhibition
# T1 construct: purchased BPS Bioscience
# T1 sequence (Q14145 2-624 limits assumed): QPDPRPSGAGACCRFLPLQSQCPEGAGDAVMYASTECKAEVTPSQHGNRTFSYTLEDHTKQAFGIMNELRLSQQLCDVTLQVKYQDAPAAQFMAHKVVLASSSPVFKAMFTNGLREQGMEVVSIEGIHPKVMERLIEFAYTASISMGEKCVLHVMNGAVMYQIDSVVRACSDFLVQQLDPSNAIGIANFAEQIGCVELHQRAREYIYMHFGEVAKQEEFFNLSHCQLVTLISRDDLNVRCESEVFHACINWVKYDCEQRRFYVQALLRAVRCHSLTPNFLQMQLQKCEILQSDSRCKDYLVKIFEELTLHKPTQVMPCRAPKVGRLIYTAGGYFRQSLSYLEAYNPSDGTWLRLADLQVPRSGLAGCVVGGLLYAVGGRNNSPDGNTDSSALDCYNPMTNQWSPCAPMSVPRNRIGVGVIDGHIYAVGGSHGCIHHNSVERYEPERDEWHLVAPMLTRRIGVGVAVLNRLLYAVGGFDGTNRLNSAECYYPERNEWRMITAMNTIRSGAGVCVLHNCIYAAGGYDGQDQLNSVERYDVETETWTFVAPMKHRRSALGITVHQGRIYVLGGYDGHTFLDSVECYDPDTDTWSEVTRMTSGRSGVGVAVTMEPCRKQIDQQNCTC
# Method: The KEAP1-Nrf2 inhibitor screening assay kit (BPS Bioscience, San Diego, California, USA) was used to determine the effect of STCs in inhibiting KEAP1-NRF2 interaction following the manufacturer’s protocol and our reported method. The STC solutions were diluted with the assay buffer, and 5 μL of the STC solutions were incubated at room temperature for 30 min in the peptide mixture containing 0.5 μL NRF2 peptide (1 μM) and 20 μL KEAP1 (15 ng/μL). The fluorescence polarisation (FP) was measured using a microplate reader at λex 485 nm and λem 530 nm. The following equation was used to determine the per cent KEAP1-NRF2 inhibitory effect of the STCs. Keap1−Nrf2 inhbitory activity %=1−Relative FP of STC/Relative FP of postive control×100
# [8] = Liver microsomal stability, human; format: in vitro ADME; conditions: for Clint / half-life at 1 μM: human liver microsomes, 1 μM (verapamil 0.5 μM)
# Method: (§2) The liver microsomes of humans, rats, and mice were purchased from Merck (human, #M0567; rat, #M9066; mouse, #M9441). The metabolic stability of 6-shogaol and STCs (1 μM effective concentration; 5 μL) was mixed with liver microsomes (0.5 mg mL^−1; 445 μL) in a microcentrifuge tube. Verapamil (0.5 μM) was used as the positive control. The microsome and compound mixture were shaken on a plate shaker for 5 min to ensure homogeneity. NADPH (1 mM; 50 μL) was added to the mixture to start the metabolic reaction. The reaction mixture was incubated at 37 °C for 0, 3, 6, 15, 30, 45, and 60 min. The mixture (20 μL) was sampled and quenched with 180 μL of acetonitrile with internal standard (Donepezil 50 ng/mL) to terminate the metabolic reaction at each time point. Ultrapure water (80 μL) was added, and contents in the microcentrifuge tubes were centrifuged at 3800 rpm at 4 °C for 10 min. […] Each set of experiments was repeated three times in human, rat, and mouse liver microsomes. The concentration of the compounds versus time was plotted to determine the elimination rate constant (Kel). The intrinsic clearance (Clint) and half-life (t1/2) were calculated using the following equations.
# [9] = Liver microsomal stability, rat; format: in vitro ADME; conditions: rat liver microsomes, 1 μM (verapamil 0.5 μM)
# Method: as §2
# [10] = Liver microsomal stability, mouse; format: in vitro ADME; conditions: mouse liver microsomes, 1 μM (verapamil 0.5 μM)
# Method: as §2
# [11] = 1 μM, NRF2-proficient BV-2 cells
IC50 [7] [nM],Clint [8] [mL/min/g liver],half-life at 1 μM [8] [min],Clint [9] [mL/min/g liver],half-life at 1 μM [9] [min],Clint [10] [mL/min/g liver],half-life at 1 μM [10] [min],Structure (SMILES),concentration toxic to the cells in the NQO1 assay ([1]; Hepa-1c1c7 cells),NO production ([2]; NRF2-proficient BV-2 cells) [µM],NO production ([2]; NRF2-silenced BV-2 cells) [µM],IL-6 level ([3]; NRF2-proficient BV-2 cells) [pg/mL],IL-6 level ([3]; NRF2-silenced BV-2 cells) [pg/mL],IFN-γ level ([4]; NRF2-proficient BV-2 cells) [pg/mL],IFN-γ level ([4]; NRF2-silenced BV-2 cells) [pg/mL],"TNF-α level [5, 11] [pg/mL]","TNF-α level ([5]; 1 μM, NRF2-silenced BV-2 cells) [pg/mL]",NF-κB p65 level ([6]; NRF2-proficient BV-2 cells) [ng/mL],NF-κB p65 level ([6]; NRF2-silenced BV-2 cells) [ng/mL],inhibition at 1 µM ([2]; NRF2-proficient BV-2 cells) [%],inhibition at 1 µM ([2]; NRF2-silenced BV-2 cells) [%],other results
900 ± 50,6.95 ± 1.52,10.5,10.57 ± 1.48,6.88,11.26 ± 2.69,6.46,"COc1cc(CCC(=O)/C=C/c2ccc([N+](=O)[O-])s2)ccc1O [STC8, (E)-5-(4-Hydroxy-3-methoxyphenyl)-1-(5-nitrothiophen-2-yl)pent-1-en-3-one]",greater than 1 μM,6.38 ± 0.04,8.86 ± 0.38,431.667 ± 3.06,846.67 ± 11.68,24.63 ± 0.64,37.86 ± 1.69,1751.00 ± 77.90,3130.33 ± 27.47,75.6 ± 5.04,131.57 ± 0.15,–,–,"CD (concentration required to double the NQO1 level) ([1]; Hepa-1c1c7 cells, 48 h): did not show the CD value"
830 ± 100,7.56 ± 1.24,9.63,11.51 ± 1.37,6.32,14.32 ± 1.51,5.08,"CCCCC/C=C/C(=O)CCc1ccc(O)c(OC)c1 [6-shogaol, reference compound]",10 µM,6.32 ± 0.03,8.56 ± 0.36,435.67 ± 7.77,852.67 ± 5.69,25.75 ± 0.72,37.52 ± 1.01,1734.00 ± 51.00,3113.00 ± 55.34,70.54 ± 5.04,132.17 ± 4.52,40,24.7,"EC (2-fold NQO1 induction) ([1]; Mus musculus, Hepa-1c1c7, 48 h, Hepa-1c1c7 cells, 48 h, read-out: CD (concentration required to double the NQO1 level)): 4.12 ± 0.52 µM; inhibition at 1 µM ([3]; NRF2-proficient BV-2 cells): 53%; inhibition at 1 µM ([3]; NRF2-silenced BV-2 cells): 6.27%; inhibition at 1 µM ([4]; NRF2-proficient BV-2 cells): 36.3%; inhibition at 1 µM ([4]; NRF2-silenced BV-2 cells): 10.5%; percentage of TNF-α inhibition ([5]; 1 μM, NRF2-silenced BV-2 cells): no inhibition; inhibition at 1 µM ([5]; NRF2-proficient BV-2 cells): 40.4%; inhibition at 1 µM ([6]; NRF2-proficient BV-2 cells): 44%; inhibition at 1 µM ([6]; NRF2-silenced BV-2 cells): 4.61%"
40 ± 1,5.09 ± 0.98,14.3,7.22 ± 1.23,10.1,6.42 ± 1.52,11.3,"COc1cc(CCC(=O)/C=C/c2cc(-c3ccccc3)cs2)ccc1O [STC5, (E)-5-(4-Hydroxy-3-methoxyphenyl)-1-(4-phenylthiophen-2-yl)pent-1-en-3-one]",–,2.58 ± 0.04,–,212.33 ± 6.11,748.67 ± 8.33,14.34 ± 1.10,31.19 ± 0.85,850.00 ± 77.90,2581.00 ± 51.00,41.5 ± 0.79,86.3 ± 1.03,75.5,64.8,"times more potent than 6-shogaol (NRF2 activation) ([1]; versus 6-shogaol): 65 times; inhibition at 1 µM ([3]; NRF2-proficient BV-2 cells): 77.1%; inhibition at 1 µM ([3]; NRF2-silenced BV-2 cells): 17.7%; inhibition at 1 µM ([4]; NRF2-proficient BV-2 cells): 42.7%; inhibition at 1 µM ([4]; NRF2-silenced BV-2 cells): 25.6%; inhibition at 1 µM ([5]; NRF2-proficient BV-2 cells): 70.8%; inhibition at 1 µM ([5]; NRF2-silenced BV-2 cells): 17%; inhibition at 1 µM ([6]; NRF2-proficient BV-2 cells): 67.1%; inhibition at 1 µM ([6]; NRF2-silenced BV-2 cells): 37.7%; half-life in liver microsomes, times longer than that of 6-shogaol ([8]; liver microsomes, species not stated, versus 6-shogaol): about 1.5 times"
